Test results reported in patent publication US4450269A, “Mono-5-substituted-3-chloro-4H-1,2,6-thiadiazin-4-one antifungal agents” (FMC Corporation, priority 1980, dated 1984).
Counter-ions that a name gives are not always drawn.

Columns and labels:
Cladosporium cucumerinum = test: Spore germination test; type: cell-based; conditions: CC, 48 hours
Summary of the method: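 Compound in acetone mixed into water agar at 40, 10, 2.5 and 1 ppm; plates seeded with spore suspension and incubated 48 hours at 24 °C. Percentage germinated spores counted and converted into a germination rating.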

Erysiphe polygoni = test: whole plant or invertebrate; conditions: foliar, 24 h, read-out: Percent Disease Control, curative, bean powdery mildew
Rhizoctonia solani = test: Mycelial growth test; type: cell-based; conditions: RS; for inhibition at 5 ppm / inhibition at 10 ppm / inhibition at 20 ppm / inhibition at 40 ppm: Rhizoctonia solani, 72 h, read-out: Percent Fungus Growth Inhibition; for Percent Fungus Growth Inhibition: 72 hours
From the text: | RS = Rhizoctonia solani

Molecule | Spore Germination Rating (Cladosporium cucumerinum; 1.0 ppm) | Spore Germination Rating (Cladosporium cucumerinum; 2.5 ppm) | Spore Germination Rating (Cladosporium cucumerinum; 10 ppm) | Spore Germination Rating (Cladosporium cucumerinum; 40 ppm) | pest or weed control at 150 ppm (Erysiphe polygoni) | inhibition at 5 ppm (Rhizoctonia solani; 5 ppm) | inhibition at 10 ppm (Rhizoctonia solani; 10 ppm) | inhibition at 20 ppm (Rhizoctonia solani; 20 ppm) | inhibition at 40 ppm (Rhizoctonia solani; 40 ppm) | Percent Fungus Growth Inhibition (Rhizoctonia solani; 5 ppm) | Percent Fungus Growth Inhibition (Rhizoctonia solani; 10 ppm) | Percent Fungus Growth Inhibition (Rhizoctonia solani; 20 ppm) | Percent Fungus Growth Inhibition (Rhizoctonia solani; 40 ppm) | Percent Fungus Growth Inhibition (Rhizoctonia solani; 10 ppm, hydrochloride) | Percent Fungus Growth Inhibition (Rhizoctonia solani; 20 ppm, hydrochloride) | Percent Fungus Growth Inhibition (Rhizoctonia solani; 40 ppm, hydrochloride)
Cc1ccccc1Oc1nsnc(Cl)c1=O [Compound 22, 3-chloro-5-(2-methylphenoxy)-4H--1,2,6-thiadiazin-4-one] | 0 (0-10) | 0 (0-10) | 0 (0-10) | 0 (0-10) | 100% | 42% | 62% | 91% | 100% | – | – | – | – | – | – | –
N#CCc1ccc(Oc2nsnc(Cl)c2=O)cc1 [Compound 46, 3-chloro-5-[(4-cyanomethyl)-phenoxy]4H--1,2,6-thiadiazin-4-one] | 4 (80-100) | 0 (0-10) | 0 (0-10) | 0 (0-10) | 0% | 27% | 56% | 64% | 100% | – | – | – | – | – | – | –
O=C(OCc1ccccc1)Oc1ccc(Oc2nsnc(Cl)c2=O)cc1 [Compound 38, 3-chloro-5-[4-(phenylmethoxycarbonyloxy)phenoxyl]-4H-1,2,6-thiadiazin-4-one] | 4 (80-100) | 4 (80-100) | 3 (60-80) | 3 (60-80) | 0% | 0% | 0% | 7% | 33% | – | – | – | – | – | – | –
O=c1c(Cl)nsnc1Oc1ccc([N+](=O)[O-])cc1Cl [Compound 53, 3-chloro-5-(2-chloro-4-nitrophenoxy)-4H--1,2,6-thiadiazin-4-one] | 0 (0-10) | 0 (0-10) | 0 (0-10) | 0 (0-10) | 0% | 53% | 53% | 76% | 76% | – | – | – | – | – | – | –
Cc1cccc(Oc2nsnc(Cl)c2=O)c1 [Compound 21, 3-chloro-5-(3-methylphenoxy)-4H--1,2,6-thiadiazin-4-one] | 1 (10-40) | 0 (0-10) | 0 (0-10) | 0 (0-10) | 100% | 53% | 64% | 87% | 100% | – | – | – | – | – | – | –
O=c1c(Cl)nsnc1Oc1cccc(C(F)(F)F)c1 [Compound 44, 3-chloro-5-[(3-trifluoromethyl)phenoxy]-4H--1,2,6-thiadiazin-4-one] | 1 (10-40) | 0 (0-10) | 0 (0-10) | 0 (0-10) | 100% | 82% | 80% | 96% | 100% | – | – | – | – | – | – | –
O=c1c(Cl)nsnc1Oc1ccc([N+](=O)[O-])cc1 [Compound 9, 3-chloro-5-(4-nitrophenoxy)-4H--1,2,6-thiadiazin-4-one] | 0 (0-10) | 0 (0-10) | 0 (0-10) | 0 (0-10) | 0% | 13% | 42% | 69% | 78% | – | – | – | – | – | – | –
O=c1c(Cl)nsnc1Oc1ccccc1Cl [Compound 14, 3-chloro-5-(2-chlorophenoxy)-4H--1,2,6-thiadiazin-4-one] | 4 (80-100) | 0 (0-10) | 0 (0-10) | 0 (0-10) | 50% | 53% | 56% | 76% | 91% | – | – | – | – | – | – | –
3-chloro-5-(bromophenoxy)-4H-1,2,6-thiadiazin-4-one [Compound 33] | 0 (0-10) | 0 (0-10) | 0 (0-10) | 0 (0-10) | – | – | – | – | – | 31% | 42% | 64% | 100% | – | – | –
Cc1cc(Oc2nsnc(Cl)c2=O)cc(C)c1Br [Compound 60, 3-[(4-bromo-3,5-dimethyl)-phenoxy]-5-chloro-4H--1,2,6-thiadiazin-4-one] | 0 (0-10) | 0 (0-10) | 0 (0-10) | 0 (0-10) | – | 42% | 31% | 42% | 56% | – | – | – | – | – | – | –
Nc1ccc(Oc2nsnc(Cl)c2=O)cc1 [Compound 27, 5-(4-aminophenoxy)-3-chloro-4H--1,2,6-thiadiazine-4-one hydrochloride] | – | – | – | – | – | – | – | – | – | – | – | – | – | 31% | 24% | 64%
O=c1c(Cl)nsnc1Oc1cccc(Cl)c1Cl [Compound 19, 3-chloro-5-(2,3-dichlorophenoxy)-4H--1,2,6-thiadiazin-4-one] | 2 (40-60) | 0 (0-10) | 0 (0-10) | 0 (0-10) | – | 29% | 47% | 69% | 82% | – | – | – | – | – | – | –
